Values quoted from earlier work, collected in patent US20100255080A1, “Liposomal ALA pharmaceutical and cosmeceutical compositions and methods of treatment” (SESVALIA USA, LLC, priority 2009, published 2010).

Settings: printed as the pH near the pka

pka: about 4
Compound: Cl.NCC(=O)CCC(=O)O [ALA, 5-aminolevulinic acid]
